Our source for the TGI and GI50 values is PubChem BioAssay (NCI).

Holding throughout (experiment): growth of human tumour cells (NCI), 48 h
The subject of assay [1] is IGROV1 ovarian.
The subject of assay [2] is TK-10 renal.
For assay [3], the system named is HT29 colon.
For assay [4], the system named is SF-295 CNS.
Assay [5] has as its system ACHN renal.
Assay [6] relates to A549 NSCLC.
The subject of assay [7] is T-47D breast.
Assay [8] has as its system OVCAR-5 ovarian.
Assay [9] relates to 786-0 renal.
In assay [10] the test system is OVCAR-8 ovarian.

Molecules are shown by their SMILES. “And” between values parts separate entries of the source, which are not always exact repeats. Identical values can stand only once.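 Interpolation was linear, between the two tested concentrations surrounding the appropriate level; five concentrations were tested over 48 hours in 96-well plates. At the GI50, growth is halved. TGI denotes the concentration required for complete inhibition of growth.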

With `CCOc1ccnc2c(OC)c(C)c3nc4ccccc4nc3c12`, the TGI in assay [1], in assay [2], in assay [3], in assay [4], in [5] and in [6] was over 100 µM in each case. The TGI in assay [7] was 67 µM; in assay [8], over 100 µM; in assay [9] it was over 100 µM; in [10], over 100 µM.
In the case of `CN(C)CCNc1nc2c(c(=O)n(C)c(=O)n2C)n1C`, the TGI in [1], in assay [2], in assay [3], in [4], in [5] and in assay [6] was over 100 µM throughout. Further, the TGI in assay [7], in assay [8], in assay [9] and in [10] was over 100 µM each time.
As to `CC(C)[Si](CC1=CCCCC12C(=O)N(COCC[Si](C)(C)C)c1ccccc12)(C(C)C)C(C)C` (stereo unspecified), the TGI in assay [1], in [2], in assay [3], in assay [4], in assay [5] and in assay [6] was over 100 µM in each case. For the same compound, the TGI in assay [7] is 96.9 µM; in assay [8], 80.9 µM; in [9] it was over 100 µM; in assay [10], over 100 µM.
Take `CCOC(=O)C1=CN(Cc2ccccc2)C2ON=C(c3ccc(Cl)cc3)C2C1` (stereo unspecified): the TGI was over 50.5 µM in assay [1]; over 81.3 µM in assay [2]; over 71.4 µM in assay [3]; over 67 µM in [4]; over 65.2 µM in [5]; over 59.6 µM in assay [6]. Besides, the TGI in assay [7] is 15.2 µM; in assay [8] it was over 68.7 µM; in [9], over 69.5 µM; in assay [10], over 67.4 µM.
On to `Cc1cccc2c1CC1(Cc3c(C)cccc3C1=O)C2=O`, for which the TGI in assay [1], in assay [2], in assay [3], in assay [4], in assay [5] and in [6] was over 100 µM each time. In addition, the TGI in assay [7], in [8], in [9] and in assay [10] was over 100 µM in each case.
Consider `COc1ccccc1NC(=O)C(=O)C(C#N)CC(C)(C)C=O` (stereo unspecified), for which the TGI in [1], in [2], in [3], in [4], in assay [5] and in [6] was over 100 µM throughout. In addition, the TGI in assay [7], in [8], in assay [9] and in assay [10] was over 100 µM throughout.
Regarding `NCCCCNCCCNC(=O)c1csc(-c2nc(CCN)sc2Cl)n1`, the TGI in assay [1], in assay [2], in assay [3], in assay [4], in assay [5] and in [6] was over 100 µM each time. Further, the TGI in assay [7], in assay [8], in [9] and in [10] was over 100 µM each time.
For the compound `COC(=O)/C=C/c1cc(OC)c2c(c1)C(C(=O)OC)C(c1ccc(O)c(OC)c1)O2` (stereo unspecified), the GI50 was 4.9 µM and 2.61 µM and 2.09 µM in assay [1]; 47.5 µM and 15.6 µM and 15.3 µM in [2]; 16 µM and 9.17 µM and 3.77 µM in assay [3]; > 26.2 µM and 15.9 µM and 7.59 µM in assay [5]; 48.8 µM and 55.2 µM and 22.3 µM in [8]; 10.8 µM and 4.76 µM and 2.32 µM in [10]. For the same compound, the TGI is > 100 µM and 35.2 µM in [1]; over 100 µM in [2]; 37.8 µM and 26.8 µM and 14.4 µM in assay [3]; 11.8 µM and 12.6 µM and 10 µM in assay [4]; over 100 µM in assay [5]; over 100 µM in assay [6]. Besides, the TGI in assay [7] was > 100 µM and 31.9 µM and > 57.6 µM; in [8] it was over 100 µM; in [9], > 100 µM and > 49.7 µM and 36.3 µM; in assay [10], > 100 µM and > 72.2 µM and 21.6 µM.
Regarding `COc1ccc(-c2cc(-c3ccncc3)nc(N)c2-c2ccc(F)cc2)cc1`, the TGI in [1] was over 100 µM; in assay [2], over 100 µM; in assay [3] it was over 100 µM; in assay [4], over 100 µM; in assay [5], 75.4 µM; in assay [6], over 100 µM. The TGI in [7], in [8], in assay [9] and in assay [10] was over 100 µM in each case.
Turning to `CC1(C)CC(=O)C(/C=N/c2nc(-c3cccc([N+](=O)[O-])c3)cs2)=C(O)C1`, the TGI was 44.7 µM in assay [1]; 92.5 µM in [2]; 30.7 µM in [3]; over 100 µM in assay [4]; 33.8 µM in [5]; over 100 µM in assay [6]. The TGI in assay [7] was 37.3 µM; in assay [8] it was over 100 µM; in assay [9], 29.9 µM; in [10], 96.2 µM.
With `CCOC1=NC(C(F)(F)F)(C(F)(F)F)N=C(/N=C(/N)N(C)C(C(C)C)P(=O)(OC(C)C)OC(C)C)O1` (stereo unspecified), the TGI in [1], in [2], in [3], in [4], in [5] and in assay [6] was over 100 µM in each case. In addition, the TGI in [7], in [8], in [9] and in assay [10] was over 100 µM throughout.
As for `[B]C(=O)NC(CC(C)C)C(=O)NC1c2ccsc2C(=O)C1O` (stereo unspecified) (tested in a mixture with another compound), the TGI in assay [1], in assay [2], in [3], in assay [4], in assay [5] and in assay [6] was over 100 µM throughout. The TGI in assay [7], in [8], in assay [9] and in [10] was over 100 µM throughout.
